This experiment concerns the target T1, Serine/threonine-protein kinase Chk1 (Homo sapiens, UniProt O14757).
T1 sequence (O14757 whole entry): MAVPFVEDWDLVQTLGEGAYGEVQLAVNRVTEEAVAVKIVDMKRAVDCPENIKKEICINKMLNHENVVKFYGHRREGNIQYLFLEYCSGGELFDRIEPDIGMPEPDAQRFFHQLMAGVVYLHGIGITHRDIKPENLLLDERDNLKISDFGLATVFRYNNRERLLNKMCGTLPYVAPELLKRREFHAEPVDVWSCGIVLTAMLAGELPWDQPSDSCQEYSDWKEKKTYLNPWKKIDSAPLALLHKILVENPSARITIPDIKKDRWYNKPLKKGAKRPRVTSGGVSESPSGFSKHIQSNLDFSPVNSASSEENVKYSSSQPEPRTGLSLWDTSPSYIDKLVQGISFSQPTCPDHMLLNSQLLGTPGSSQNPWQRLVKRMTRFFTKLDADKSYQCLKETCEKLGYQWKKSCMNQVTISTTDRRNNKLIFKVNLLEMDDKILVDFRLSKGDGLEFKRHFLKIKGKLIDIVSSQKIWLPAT
Description: Inhibition of checkpoint kinase-1.

The term IC50 denotes the point on the concentration scale where inhibition reaches its midpoint. A higher IC50 goes with a need for much substance.

`COc1ccc(Nc2nc(Nc3ccc(C(=O)O)cc3)ncc2Br)cc1` gave an IC50 of 450 nM.

Compound `N#Cc1ccc2c(c1)NC(=O)C2c1ncnc2cc(OCCCN3CCOCC3)ccc12` (configuration not stated) registered an IC50 of 4000 nM.

The values above are taken from ChEMBL document CHEMBL1137086, “Identification of compounds with nanomolar binding affinity for checkpoint kinase-1 using knowledge-based virtual screening” (J Med Chem, 2004).
